Data on 41 compounds can be found in PubChem BioAssay (NCI).

Values joined by “and” are separate entries in the source; they are usually repeats but may differ in a detail not shown here. Equal values may be shown once.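 96-well plates; 48 h exposure; 5 concentrations. Endpoints by linear interpolation between flanking doses. Not reached: highest tested concentration assigned. GI50 = concentration required for 50% inhibition of growth. Definition used: TGI = concentration required for complete inhibition of growth.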

The test relates to MDA-MB-468 breast. In words: NCI-60 cell line screen, 48 h.

As to `COc1ccc(C(=O)Nc2cccc(C3CC(=O)c4c(cc(OC)c(OC)c4OC)O3)c2)cc1` (configuration not stated), the GI50 is 0.94 µM and the TGI is more than 100 µM.
Turning to `Cc1ccc2c(n1)C(=O)C(Cl)=C(Nc1ccc(C(C)C)cc1)C2=O`, the GI50 is 0.512 µM and the TGI was determined as 1.85 µM.
On to `C=C1C(=O)O[C@@H]2/C=C(/C)C3=CC(=O)[C@@](C)(C[C@H](OC(=O)/C(C)=C\C)[C@@H]12)O3`, for which the GI50 is 1.14 µM and the TGI came to 5.03 µM.
For `C[n+]1c2ccccc2c(NC2CCNCC2)c2[nH]c3ccccc3c21` the same measures were 0.2 µM and 1.26 µM.
Take `CNCCNc1nc2ccccc2c2c(=O)c3cccc(OC)c3sc12`: the GI50 was 1.45 µM and the TGI amounted to 3.06 µM.
For `COc1ccc(-n2c(N)c(C(=O)NCCN3CCOCC3)c3nc4ccccc4nc32)cc1OC` the same measures were 17.9 µM and more than 100 µM.
On the same counts, the results for `Cc1ccccc1NC(=O)NC(CC(N)=O)c1ccc2c(c1)nc(-c1cccc(Oc3ccc(C(C)(C)C)cc3)c1)n2CCCN1CCCCC1C` (configuration not stated) are 1.78 µM and 3.28 µM.
For `COc1ccc(/C=C(/C(=O)N2CCNCC2)c2cc(OC)c(OC)c(OC)c2)cc1O` the same measures were 2.27 µM and 9.71 µM.
In the case of `O=C1NC(=NCCc2ccccc2Cl)S/C1=C\c1ccc2ncccc2c1`, the GI50 was 2.17 µM and the TGI is more than 18.3 µM.
Take `O=[N+]([O-])c1ccc2[nH]cc(-c3c4ccccc4cc4[nH]c5ccc([N+](=O)[O-])cc5c34)c2c1`: the GI50 was 2.5 µM and the TGI amounted to 7.71 µM.
With `CCCCOC(=O)N[C@H]1CCc2cc(OC)c(OC)c(OC)c2-c2ccc(SC)c(=O)cc21`, the GI50 is less than 0.01 µM and the TGI turned out to be 19.4 µM.
On the same counts, the results for `Cc1ccc(/C=C2\CCOC2=O)cc1` are more than 100 µM and more than 100 µM.
On the same counts, the results for `CN1CCC(n2cc(Nc3ncc4c(=O)n(-c5c(Cl)cccc5Cl)cc(Br)c4n3)cn2)CC1` are 0.937 µM and 7.27 µM.
For `COC(=O)c1c(-c2ccccc2)csc1NC(=O)c1c(-c2ccccc2)noc1C` the same measures were 3.2 µM and more than 100 µM.
Regarding `Nc1nc(N)c2c(n1)NC(c1ccccc1)CC(c1ccc(Nc3nc(NCCO)nc(Nc4ccc(Cl)cc4)n3)cc1)=N2` (configuration not stated), the GI50 is 1.51 µM and the TGI turned out to be 2.99 µM.
On the same counts, the results for `CSC(=S)N/N=C(\C)c1ccccn1` are 0.0685 µM and 1.21 µM.
Take `C=C1C(=O)O[C@H]2[C@H]1CC/C(COC(=O)CCC(=O)OC/C1=C/CC[C@@]3(C)O[C@H]3[C@H]3OC(=O)C(=C)[C@@H]3CC1)=C\CC[C@@]1(C)O[C@@H]21`: the GI50 is 1.56 µM and the TGI was determined as 4.83 µM.
On the same counts, the results for `Cn1c(=O)c(Cc2ccc(F)cc2F)cc2cnc(NC3CCOCC3)nc21` are 19.6 µM and more than 25 µM.
On to `COc1cccc2c1C(=O)c1c(O)c3c(c(O)c1C2=O)C[C@@](O)(C(C)=O)C[C@@H]3OC1CC(N)C(O)C(C)O1` (some centres not stated), for which the GI50 is 0.0623 µM and the TGI is 0.313 µM.
In the case of `Cc1nc2cc(O)c(O)cc2cc1Oc1ccc(NC(=O)Nc2ccc(Cl)c(Cl)c2)cc1`, the GI50 was 6.99 µM and the TGI is 17.4 µM.
`CC(C)(C)CC(C)(C)Cc1ccc(OCCOCC[N+](C)(C)Cc2ccccc2)cc1`: the GI50 is 0.235 µM and the TGI was 1.2 µM.
For `Oc1ccc2ccccc2c1/C=N\Nc1ccccn1` the same measures were 1.59 µM and 4.87 µM.
With `O=C1NC(=NCc2ccccn2)S/C1=C\c1ccc2ncccc2c1`, the GI50 was 5.97 µM and the TGI is more than 25 µM.
Turning to `COC(=O)c1ccc2c(c1)nc(-c1ccc(Cl)cc1)n2-c1cc(C(C)(C)C)[nH]n1`, the GI50 is 2.4 µM and the TGI turned out to be 7.98 µM.
For `COc1ccc(/C=N/NC2=NC3C(S2)N(C)C(=O)N3C)cc1` (configuration not stated) the same measures were 1.95 µM and 5.35 µM.
For `CN(C)CCn1cc(-c2ccc3c(Nc4ccc(CC(=O)Nc5cccc(F)c5)cc4)ncnc3c2)cn1` the same measures were 1.26 µM and 2.85 µM.
With `C=C1C(=O)O[C@H]2[C@H]1CC/C(Cn1cc(CCC)nn1)=C\CC[C@@]1(C)O[C@@H]21`, the GI50 was 3.65 µM and the TGI came to 14.9 µM.
In the case of `CCN1C(=O)N(c2c(F)c(OC)cc(OC)c2F)Cc2cnc3[nH]c(CN4CCOCC4)cc3c21`, the GI50 is 2.29 µM and the TGI worked out at 55.9 µM.
Consider `COc1ccc(C2CC(c3cc(OC)c(OC)c(OC)c3)=NN2)cc1` (configuration not stated), for which the GI50 is 4.35 µM and the TGI came out at 64.5 µM.
For `Cc1ccc(/C=C(\C#N)n2nnc3cc(F)c(F)cc32)cc1`, the GI50 was 10.3 µM and the TGI amounted to 44.4 µM.
For `COc1ccccc1Nc1nc(-c2cc3cccc(C(F)(F)F)c3oc2=O)cs1` the same measures were 0.097 µM and 0.71 µM.
On the same counts, the results for `COc1cc(-c2ccc(-c3ccc(C(=N)N)s3)s2)cc(OC)c1OC` are 1.82 µM and 3.7 µM.
On to `CCOc1ccc2c(c1)/C(=C\C=C\C1CC(C)C3CC(OCC)CCC3N1CC)CC(C)N2CC` (configuration not stated), for which the GI50 is 0.28 µM and the TGI worked out at 1.11 µM.
On the same counts, the results for `CS(=O)(=O)c1nccc(-c2c(-c3cccc(OCc4ccc(Cl)c(C(F)(F)F)c4)c3)nc3sccn23)n1` are 0.859 µM and 1.66 µM.
Take `Cn1c2ccccc2c2c3c(c4c5ccccc5n(CCCCCC#N)c4c21)C(=O)N(O)C3=O`: the GI50 is 0.683 µM and the TGI was determined as 6.12 µM.
With `Fc1ccc(Nc2nc(Nc3ccc(-c4nc5ccccc5[nH]4)cc3)nc(N3CCCC3)n2)cc1`, the GI50 is 2.75 µM and the TGI was found to be 6.74 µM.
Take `Cn1c(=O)c(F)c(Nc2ccc(I)cc2F)c2c(=O)n(C[C@@H](O)CO)cnc21`: the GI50 was 1.8 µM and 0.59 µM; the TGI was 8.66 µM and > 2.09 µM.
On to `NC(=O)NC(=O)CI`, for which the GI50 is 2.48 µM and the TGI amounted to 7.73 µM.
On the same counts, the results for `Nc1nc(Cl)nc2c1ncn2C1O[C@H](CO)[C@@H](O)[C@@H]1F` (some centres not stated) are 0.387 µM and 21.8 µM.
With `CCCCCCCCSC1=CC(=O)C(OC)=C(OC)C1=O`, the GI50 is 1.43 µM and the TGI worked out at 2.97 µM.
On the same counts, the results for `O=C(CCN1CCCC1)Nc1ccc2c(NCCCCc3ccccc3)c3ccccc3nc2c1` are 0.811 µM and 2.12 µM.
